Data from article PMC11284788, “NN1213 – A Potent, Long-Acting, and Selective Analog of Human Amylin” (Journal of Medicinal Chemistry, 2024).
In brackets after ≈: the same amount, converted by molar mass. Where two headings read alike, the source gives them in different places. Numbered stars: 1 amine (or outer) side, 2 acyl side, 3 side chain; on linkers, the order of the positions; unused ones are H or OH. Bridge positions count the residues as written; N and C are the ends. Side chains are listed from the residue outwards. Peptide text beside a SMILES is read from it. * marks the point of attachment. C20 diacid = O=C(O)CCCCCCCCCCCCCCCCCCC(=O)*; γGlu = O=C(O)[C@H](CCC(=O)[*:2])N[*:1]

What was measured:
[1] = ThT assay: fibril formation propensity and peptide recovery; format: physicochemical; details: for ThT, pH 4.0 lag-time / ThT, pH 7.5 lag-time: 250 μM peptide, 37 °C, 960 rpm, 45 h, lowest of four replicas, average of experiments; for ThT, pH 4.0 lag-time: 10 mM glycylglycine pH 4.0, 1 μM ThT; for recovery: residual dissolved peptide after 45 h of shaking, centrifugation and 0.22 μm filtration, HPLC, relative to amount before stress; for ThT, pH 7.5 lag-time: 10 mM HEPES pH 7.5, 1 μM ThT
In short: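 Fibrillation lag time is read visually from ThT fluorescence-time curves (444/485 nm, 20-min reads, 45 h, 37 °C, 960 rpm shaking) of 250 μM peptide with 1 μM ThT at pH 4.0 or 7.5. The most conservative of four replicates is used. Peptide recovery is post-stress soluble peptide (HPLC, 215/276 nm) as fraction of initial.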

[2] = Solubility versus pH profile
[3] = target: T1, hAMY3R (Homo sapiens, UniProt O60896+P30988); experiment: cAMP-responsive element luciferase reporter assay, human AMY3R; format: cell-based; set-up: expressed in transfected cells; details: for EC50 / hAMY3R pEC50: luciferase (human receptor assay); for ratio hCTR/hAMY3R: ratio of luciferase EC50 values
T1 sequence (P30988 25-474): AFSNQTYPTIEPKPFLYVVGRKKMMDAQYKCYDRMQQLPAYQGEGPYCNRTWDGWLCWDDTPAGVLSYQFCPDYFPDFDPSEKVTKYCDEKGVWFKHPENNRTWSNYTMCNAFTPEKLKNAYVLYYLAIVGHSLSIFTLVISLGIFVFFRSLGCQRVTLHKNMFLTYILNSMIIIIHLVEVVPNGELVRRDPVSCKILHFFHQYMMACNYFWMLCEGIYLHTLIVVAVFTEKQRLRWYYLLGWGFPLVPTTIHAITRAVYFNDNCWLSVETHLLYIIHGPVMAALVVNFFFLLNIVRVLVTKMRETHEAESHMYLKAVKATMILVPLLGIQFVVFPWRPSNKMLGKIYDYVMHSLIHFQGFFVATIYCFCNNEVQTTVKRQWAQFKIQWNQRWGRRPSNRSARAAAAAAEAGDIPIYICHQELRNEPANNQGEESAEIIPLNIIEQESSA
T1 sequence (O60896 24-148 partner): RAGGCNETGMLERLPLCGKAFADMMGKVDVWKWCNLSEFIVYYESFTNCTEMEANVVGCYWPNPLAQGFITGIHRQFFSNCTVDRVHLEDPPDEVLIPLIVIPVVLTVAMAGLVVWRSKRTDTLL

[4] = bis-tris-propane buffer, pH 6, aqueous buffer
[5] = bis-tris-propane buffer, pH 6.5, aqueous buffer
[6] = bis-tris-propane buffer, pH 7, aqueous buffer
[7] = bis-tris-propane buffer, pH 7.5, aqueous buffer
[8] = bis-tris-propane buffer, pH 8, aqueous buffer
[9] = lactate buffer, pH 4, aqueous buffer
[10] = lactate buffer, pH 5, aqueous buffer
[11] = Tables S12 and S14, read-out: hAMY3R pEC50 (converted)
[12] = BHK cells stably expressing hCTR+RAMP3 and CRE-luciferase, 3 h, 37 °C, 10% FBS, read-out: hAMY3R EC50

ThT, pH 4.0 lag-time [1] | recovery ([1]; pH 4.0) | solubility kinetic [2, 4] | solubility kinetic [2, 5] | solubility kinetic [2, 6] | solubility kinetic [2, 7] | solubility kinetic [2, 8] | solubility kinetic [2, 9] | solubility kinetic [2, 10] | EC50 [3, 11] | EC50 [3, 12] | ratio hCTR/hAMY3R [3] | ThT, pH 7.5 lag-time [1] | recovery ([1]; pH 7.5) | hAMY3R pEC50 ([3]; Tables S12 and S14) | Compound
26 h | 92% | ≥ 200 µM | ≥ 200 µM | ≥ 200 µM | ≥ 200 µM | ≥ 200 µM | ≥ 200 µM | ≥ 200 µM | 151 pM | 151 pM | 17 | – | – | – | CC[C@H](C)[C@H](NC(=O)[C@H](C)NC(=O)CNC(=O)[C@H](Cc1ccccc1)NC(=O)[C@H](CC(N)=O)NC(=O)[C@@H]1CCCN1C(=O)[C@H](CO)NC(=O)[C@H](CO)NC(=O)[C@H](Cc1c[nH]cn1)NC(=O)[C@H](CCCNC(=N)N)NC(=O)[C@H](CC(C)C)NC(=O)[C@H](Cc1ccccc1)NC(=O)[C@H](CC(N)=O)NC(=O)[C@H](C)NC(=O)[C@H](CC(C)C)NC(=O)[C@H](CCCNC(=N)N)NC(=O)[C@H](CCC(N)=O)NC(=O)[C@@H](NC(=O)[C@H](C)NC(=O)[C@@H]1CSSC[C@H](NC(=O)[C@H](CCCCN)NC(=O)CC[C@H](NC(=O)CCCCCCCCCCCCCCCCCCC(=O)O)C(=O)O)C(=O)N[C@@H](CC(N)=O)C(=O)N[C@@H]([C@@H](C)O)C(=O)N[C@@H](C)C(=O)N[C@@H]([C@@H](C)O)C(=O)N1)[C@@H](C)O)C(=O)N1CCC[C@H]1C(=O)N[C@@H](CO)C(=O)N[C@@H](CO)C(=O)N[C@H](C(=O)N[C@@H](CC(N)=O)C(=O)N[C@H](C(=O)NCC(=O)N[C@@H](Cc1c[nH]cn1)C(=O)N[C@@H](CC(N)=O)C(=O)N[C@H](C(=O)N[C@@H](Cc1ccc(O)cc1)C(N)=O)[C@@H](C)O)C(C)C)[C@@H](C)O [Peptide 17]
– | – | ≥ 200 µM | ≥ 200 µM | ≥ 200 µM | ≥ 200 µM | ≥ 200 µM | ≥ 200 µM | 172 µM (≈ 776 µg/mL) | 219 pM | 219 pM | 12 | 35 h | 100% | – | CC(C)C[C@H](NC(=O)[C@H](CCCNC(=N)N)NC(=O)[C@H](CCC(N)=O)NC(=O)[C@@H](NC(=O)[C@H](C)NC(=O)[C@@H]1CSSC[C@H](NC(=O)[C@@H](N)CCCCNC(=O)CC[C@H](NC(=O)CC[C@H](NC(=O)CCCCCCCCCCCCCCCCCCC(=O)O)C(=O)O)C(=O)O)C(=O)N[C@@H](CC(N)=O)C(=O)N[C@@H]([C@@H](C)O)C(=O)N[C@@H](C)C(=O)N[C@@H]([C@@H](C)O)C(=O)N1)[C@@H](C)O)C(=O)N[C@@H](C)C(=O)N[C@@H](CC(=O)O)C(=O)N[C@@H](Cc1ccccc1)C(=O)N[C@@H](CC(C)C)C(=O)N[C@@H](CCCNC(=N)N)C(=O)N[C@@H](Cc1c[nH]cn1)C(=O)N[C@@H](CO)C(=O)N[C@@H](CO)C(=O)N1CCC[C@H]1C(=O)N[C@@H](CC(N)=O)C(=O)N[C@@H](Cc1ccccc1)C(=O)NCC(=O)N[C@@H](C)C(=O)N1CCC[C@H]1C(=O)N[C@@H](CC(C)C)C(=O)N[C@@H](CO)C(=O)N[C@@H](CO)C(=O)N[C@H](C(=O)N[C@@H](CC(N)=O)C(=O)N[C@H](C(=O)NCC(=O)N[C@@H](CO)C(=O)N[C@@H](CC(=O)O)C(=O)N[C@H](C(=O)N[C@@H](Cc1ccc(O)cc1)C(N)=O)[C@@H](C)O)C(C)C)[C@@H](C)O [Peptide 5] (H-K([γGlu-γGlu-C20 diacid])CNTATCATQRLADFLRHSSPNFGAPLSSTNVGSDTY-NH2; disulfide 2-7)
– | – | ≥ 200 µM | 190 µM (≈ 857 µg/mL) | ≥ 200 µM | ≥ 200 µM | ≥ 200 µM | ≥ 200 µM | ≥ 200 µM | – | – | 15 | >45 h | 100% | – | CC[C@H](C)[C@H](NC(=O)[C@H](C)NC(=O)CNC(=O)[C@H](Cc1ccccc1)NC(=O)[C@H](CC(N)=O)NC(=O)[C@@H]1CCCN1C(=O)[C@H](CO)NC(=O)[C@H](CO)NC(=O)[C@H](Cc1c[nH]cn1)NC(=O)[C@H](CCCNC(=N)N)NC(=O)[C@H](CC(C)C)NC(=O)[C@H](Cc1ccccc1)NC(=O)[C@H](CC(=O)O)NC(=O)[C@H](C)NC(=O)[C@H](CC(C)C)NC(=O)[C@H](CCCNC(=N)N)NC(=O)[C@H](CCC(N)=O)NC(=O)[C@@H](NC(=O)[C@H](C)NC(=O)[C@@H]1CSSC[C@H](NC(=O)[C@@H](N)CCCCNC(=O)CC[C@H](NC(=O)CC[C@H](NC(=O)CCCCCCCCCCCCCCCCCCC(=O)O)C(=O)O)C(=O)O)C(=O)N[C@@H](CC(N)=O)C(=O)N[C@@H]([C@@H](C)O)C(=O)N[C@@H](C)C(=O)N[C@@H]([C@@H](C)O)C(=O)N1)[C@@H](C)O)C(=O)N1CCC[C@H]1C(=O)N[C@@H](CO)C(=O)N[C@@H](CO)C(=O)N[C@H](C(=O)N[C@@H](CC(N)=O)C(=O)N[C@H](C(=O)NCC(=O)N[C@@H](CO)C(=O)N[C@@H](CC(=O)O)C(=O)N[C@H](C(=O)N[C@@H](Cc1ccc(O)cc1)C(N)=O)[C@@H](C)O)C(C)C)[C@@H](C)O [Peptide 6] (H-K([γGlu-γGlu-C20 diacid])CNTATCATQRLADFLRHSSPNFGAIPSSTNVGSDTY-NH2; disulfide 2-7)
>45 h | 100% | ≥ 200 µM | ≥ 200 µM | ≥ 200 µM | ≥ 200 µM | ≥ 200 µM | ≥ 200 µM | ≥ 200 µM | – | – | 15 | – | – | 9.44 | CC[C@H](C)[C@H](NC(=O)[C@H](C)NC(=O)CNC(=O)[C@H](Cc1ccccc1)NC(=O)[C@H](CC(N)=O)NC(=O)[C@@H]1CCCN1C(=O)[C@H](CO)NC(=O)[C@H](CO)NC(=O)[C@H](Cc1c[nH]cn1)NC(=O)[C@H](CCCNC(=N)N)NC(=O)[C@H](CC(C)C)NC(=O)[C@H](Cc1ccccc1)NC(=O)[C@H](CC(N)=O)NC(=O)[C@H](C)NC(=O)[C@H](CC(C)C)NC(=O)[C@H](CCCNC(=N)N)NC(=O)[C@H](CCC(N)=O)NC(=O)[C@@H](NC(=O)[C@H](C)NC(=O)[C@@H]1CSSC[C@H](NC(=O)[C@@H](N)CCCCNC(=O)CC[C@H](NC(=O)CCCCCCCCCCCCCCCCCCC(=O)O)C(=O)O)C(=O)N[C@@H](CC(N)=O)C(=O)N[C@@H]([C@@H](C)O)C(=O)N[C@@H](C)C(=O)N[C@@H]([C@@H](C)O)C(=O)N1)[C@@H](C)O)C(=O)N1CCC[C@H]1C(=O)N[C@@H](CO)C(=O)N[C@@H](CO)C(=O)N[C@H](C(=O)N[C@@H](CC(N)=O)C(=O)N[C@H](C(=O)NCC(=O)N[C@@H](CO)C(=O)N[C@@H](CCCCN)C(=O)N[C@H](C(=O)N[C@@H](Cc1ccc(O)cc1)C(N)=O)[C@@H](C)O)C(C)C)[C@@H](C)O [Peptide 14]
>45 h | 84% | ≥ 200 µM | ≥ 200 µM | ≥ 200 µM | 50 µM (≈ 224 µg/mL) | 68 µM (≈ 305 µg/mL) | ≥ 200 µM | ≥ 200 µM | – | – | 6 | – | – | 9.65 | CC[C@H](C)[C@H](NC(=O)[C@H](C)NC(=O)CNC(=O)[C@H](Cc1ccccc1)NC(=O)[C@H](CC(N)=O)NC(=O)[C@@H]1CCCN1C(=O)[C@H](CO)NC(=O)[C@H](CO)NC(=O)[C@H](Cc1c[nH]cn1)NC(=O)[C@H](CCCNC(=N)N)NC(=O)[C@H](CC(C)C)NC(=O)[C@H](Cc1ccccc1)NC(=O)[C@H](CC(N)=O)NC(=O)[C@H](C)NC(=O)[C@H](CC(C)C)NC(=O)[C@H](CCCNC(=N)N)NC(=O)[C@H](CCC(N)=O)NC(=O)[C@@H](NC(=O)[C@H](C)NC(=O)[C@@H]1CSSC[C@H](NC(=O)[C@H](CCCNC(=N)N)NC(=O)CNC(=O)CC[C@H](NC(=O)CCCCCCCCCCCCCCCCCCC(=O)O)C(=O)O)C(=O)N[C@@H](CC(N)=O)C(=O)N[C@@H]([C@@H](C)O)C(=O)N[C@@H](C)C(=O)N[C@@H]([C@@H](C)O)C(=O)N1)[C@@H](C)O)C(=O)N1CCC[C@H]1C(=O)N[C@@H](CO)C(=O)N[C@@H](CO)C(=O)N[C@H](C(=O)N[C@@H](CC(N)=O)C(=O)N[C@H](C(=O)NCC(=O)N[C@@H](CO)C(=O)N[C@@H](Cc1c[nH]cn1)C(=O)N[C@H](C(=O)N[C@@H](Cc1ccc(O)cc1)C(N)=O)[C@@H](C)O)C(C)C)[C@@H](C)O [Peptide 19] ({C20 diacid-γGlu}-GRCNTATCATQRLANFLRHSSPNFGAIPSSTNVGSHTY-NH2; disulfide 3-8)
